For 28 compounds, IC50 results are on record in patent US9951077B2, “Aminopyridazinone compounds as protein kinase inhibitors” (ETERNITY BIOSCIENCE INC., priority 2014, dated 2018).

A word on the IC50: it is the concentration needed to halve the response being measured.

Chain of Btk (Q06187 whole entry): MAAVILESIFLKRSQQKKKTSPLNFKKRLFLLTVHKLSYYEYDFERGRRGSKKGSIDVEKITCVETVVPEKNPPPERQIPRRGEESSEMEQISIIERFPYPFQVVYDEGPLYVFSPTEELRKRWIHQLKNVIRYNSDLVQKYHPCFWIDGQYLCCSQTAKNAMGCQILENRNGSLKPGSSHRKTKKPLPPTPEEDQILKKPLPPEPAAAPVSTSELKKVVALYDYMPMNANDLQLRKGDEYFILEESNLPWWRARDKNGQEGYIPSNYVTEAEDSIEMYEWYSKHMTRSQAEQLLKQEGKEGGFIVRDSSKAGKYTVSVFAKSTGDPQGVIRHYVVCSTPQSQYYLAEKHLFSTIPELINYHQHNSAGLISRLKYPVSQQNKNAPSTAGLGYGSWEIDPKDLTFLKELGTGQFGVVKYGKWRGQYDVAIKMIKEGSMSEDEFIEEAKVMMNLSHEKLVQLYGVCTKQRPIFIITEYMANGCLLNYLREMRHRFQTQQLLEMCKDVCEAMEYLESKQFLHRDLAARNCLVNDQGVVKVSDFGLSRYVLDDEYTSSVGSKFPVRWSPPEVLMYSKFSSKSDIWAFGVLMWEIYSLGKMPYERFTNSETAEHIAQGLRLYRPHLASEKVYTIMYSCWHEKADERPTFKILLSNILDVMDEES

In this assay the target is Btk (Homo sapiens (Human), UniProt Q06187). The assay is described as follows: Btk kinase assay (ADP-Glo). Format: biochemical. The conditions noted are these: ATP 1.2 μM, 60 minutes, room temperature; read-out: BTK enzyme IC50. The protocol:
The Btk kinase assay was performed using a ADP-Glo Btk kinase assay kit purchased from Promega (Madison, Wis.). The assay was conducted according to the protocols provided in the assay kit. In brief, the enzyme reaction was carried out in the kinase reaction buffer containing Btk (2 ng/μl), ATP (1.2 μM), poly GT peptide (0.3 μM), DTT (40 nM), MnCl2 (1.4 mM), and 1×kinase buffer (included in the kit) in the presence or absence of the tested articles at various concentrations in 384-well plate at room temperature (22±1° C.) for 60 minutes. The final reaction volume for each reaction was 10 μl. Then, 4 μl of ADP-Glo reagent (included in the kit) was added into the reaction and the plate was further incubated for another 40 minutes to terminate the reaction and deplete the remaining ATP. Finally, 10 μl of the kinase detection reagent was added into each reaction to simultaneously convert ADP to ATP and allow the newly synthesized ATP to be measured by a plate-reading luminometer (Victor X5 2030 multilabel reader, PerkinElmer). IC50 value was calculated using appropriate programs in GraphPad Prism by plotting the logarithm of the concentration versus percent inhibition as compared with a vehicle (DMSO) control.
In general terms: ADP-Glo turns the ADP formed in a reaction into a luminescent signal.
For the compound `N#CN1CCC[C@@H](n2cc(-c3ccc(Oc4ccccc4F)cc3)c3c(N)n[nH]c(=O)c32)C1` [Example 87, (R)-3-(4-amino-3-(4-(2-fluorophenoxy)phenyl)-7-oxo-6,7-dihydro-1H-pyrrolo[2,3-d]pyridazin-1-yl)piperidine-1-carbonitrile], the IC50 is not above 10 nM.
Next, `COc1ccc(-c2cn(C3CCCN(C(=O)/C=C/CN(C)C)C3)c3c(=O)[nH]nc(N)c23)cc1Cl` (stereo not shown) [Example 54, 4-amino-3-(3-chloro-4-methoxy-phenyl)-1-[1-[(E)-4-(dimethylamino)but-2-enoyl]-3-piperidyl]-6H-pyrrolo[2,3-d]pyridazin-7-one]: not above 10 nM.
Regarding `CN(C)C/C=C/C(=O)N1CC(n2cc(-c3ccc(Oc4ccccc4)cc3)c3c(N)n[nH]c(=O)c32)C1` [Example 40, 4-amino-1-[1-[(E)-4-(dimethylamino)but-2-enoyl]azetidin-3-yl]-3-(4-phenoxyphenyl)-6H-pyrrolo[2,3-d]pyridazin-7-one], the IC50 lay within 10 to 1000 nM.
As for `C=CC(=O)Nc1cccc(-n2cc(-c3ccc(Oc4ccccc4)cc3)c3c(N)n[nH]c(=O)c32)c1` [Example 88, N-(3-(4-amino-7-oxo-3-(4-phenoxyphenyl)-6,7-dihydro-1H-pyrrolo[2,3-d]pyridazin-1-yl)phenyl)acrylamide], the half-maximal inhibitory concentration (IC50) was not above 10 nM.
Next, `C=CC(=O)N1CCC[C@@H](n2c(Cl)c(-c3ccc(Oc4ccccc4)cc3)c3c(N)n[nH]c(=O)c32)C1` [Example 80, (R)-1-(1-acryloylpiperidin-3-yl)-4-amino-2-chloro-3-(4-phenoxyphenyl)-1H-pyrrolo[2,3-d]pyridazin-7(6H)-one]: 10 to 1000 nM.
Consider `CN(C)C/C=C/C(=O)N1CCCC(n2cc(-c3ccc(Oc4cccc(Cl)c4)cc3)c3c(N)n[nH]c(=O)c32)C1` (stereo not shown) [Example 67, 4-amino-3-[4-(3-chlorophenoxy)phenyl]-1-[1-[(E)-4-(dimethylamino)but-2-enoyl]-3-piperidyl]-6H-pyrrolo[2,3-d]pyridazin-7-one], for which the IC50 is not above 10 nM.
Regarding `CN(C/C=C/C(=O)N1CCC[C@@H](n2cc(-c3ccc(Oc4ccccc4)cc3)c3c(N)n[nH]c(=O)c32)C1)C1CC1` [Example 29, 4-amino-1-[(3R)-1-[(E)-4-(cyclopropyl(methyl)amino)but-2-enoyl]-3-piperidyl]-3-(4-phenoxyphenyl)-6H-pyrrolo[2,3-d]pyridazin-7-one], the IC50 was 10 to 1000 nM.
Next, `C=CC(=O)N1CCC[C@@H](n2c(Cl)c(-c3ccc(Oc4ccccc4F)cc3)c3c(N)n[nH]c(=O)c32)C1` [Example 83, (R)-1-(1-acryloylpiperidin-3-yl)-4-amino-2-chloro-3-(4-(2-fluorophenoxy)phenyl)-1H-pyrrolo[2,3-d]pyridazin-7(6H)-one]: 1000 to 100000 nM; `COc1ccc(-c2cn(C3CCCN(C(=O)/C=C/CN(C)C)C3)c3c(=O)[nH]nc(N)c23)cc1` (stereo not shown) [Example 52, 4-amino-1-[1-[(E)-4-(dimethylamino)but-2-enoyl]-3-piperidyl]-3-(4-methoxyphenyl)-6H-pyrrolo[2,3-d]pyridazin-7-one]: not above 10 nM.
Take `N#CN1CCC[C@@H](n2cc(-c3ccc(Oc4c(F)cccc4F)cc3)c3c(N)n[nH]c(=O)c32)C1` [Example 84, (R)-3-(4-amino-3-(4-(2,6-difluorophenoxy)phenyl)-7-oxo-6,7-dihydro-1H-pyrrolo[2,3-d]pyridazin-1-yl)piperidine-1-carbonitrile]: the IC50 was in the range of 10 to 1000 nM.
Next, `CC#CC(=O)N1CCCC(n2cc(-c3ccc(Oc4ccccc4)cc3)c3c(N)n[nH]c(=O)c32)C1` (stereo not shown) [Example 21, 4-amino-1-(1-(but-2-ynoyl)piperidin-3-yl)-3-(4-phenoxyphenyl)-1H-pyrrolo[2,3-d]pyridazin-7(6H)-one]: 1000 to 100000 nM; `CN(C)C/C=C/C(=O)Nc1cccc(-n2cc(-c3ccc(Oc4ccccc4F)cc3)c3c(N)n[nH]c(=O)c32)c1` [Example 92, (E)-N-[3-[4-amino-3-[4-(2-fluorophenoxy)phenyl]-7-oxo-6H-pyrrolo[2,3-d]pyridazin-1-yl]phenyl]-4-(dimethylamino)but-2-enamide]: 10 to 1000 nM; `Nc1n[nH]c(=O)c2c1c(-c1ccc(Oc3ccccc3)cc1)cn2[C@@H]1CCCN(C(=O)C2CC2)C1` [Example 23, 4-amino-1-[(3R)-1-(cyclopropanecarbonyl)-3-piperidyl]-3-(4-phenoxyphenyl)-6H-pyrrolo[2,3-d]pyridazin-7-one]: 10 to 1000 nM.
Under `C=CC(=O)N1CCC[C@@H]1Cn1cc(-c2ccc(Oc3ccccc3)cc2)c2c(N)n[nH]c(=O)c21` [Example 7, 4-amino-3-(4-phenoxyphenyl)-1-[[(2R)-1-prop-2-enoylpyrrolidin-2-yl]methyl]-6H-pyrrolo[2,3-d]pyridazin-7-one] stands 1000 to 100000 nM; under `CC#CC(=O)N[C@H]1CC[C@@H](n2cc(-c3ccc(Oc4ccccc4F)cc3)c3c(N)n[nH]c(=O)c32)CC1` [Example 102, N-((1s,4s)-4-(4-amino-3-(4-(2-fluorophenoxy)phenyl)-7-oxo-6,7-dihydro-1H-pyrrolo[2,3-d]pyridazin-1-yl)cyclohexyl)but-2-ynamide], 10 to 1000 nM; under `C=CC(=O)Nc1ccc(-n2cc(-c3ccc(Oc4ccccc4)cc3)c3c(N)n[nH]c(=O)c32)cc1` [Example 90, N-(4-(4-amino-7-oxo-3-(4-phenoxyphenyl)-6,7-dihydro-1H-pyrrolo[2,3-d]pyridazin-1-yl)phenyl)acrylamide], 10 to 1000 nM.
With `Nc1n[nH]c(=O)c2c1c(-c1ccc(Oc3ccccc3)cc1)cn2[C@@H]1CCCN(C(=O)/C=C/CN2CCOCC2)C1` [Example 35, 4-amino-1-[(3R)-1-[(E)-4-morpholinobut-2-enoyl]-3-piperidyl]-3-(4-phenoxyphenyl)-6H-pyrrolo[2,3-d]pyridazin-7-one], the IC50 is not above 10 nM.
Take `C=CC(=O)N1CCCC(n2cc(-c3ccc(Oc4ccccc4F)cc3)c3c(N)n[nH]c(=O)c32)C1` (stereo not shown) [Example 55, 1-(1-acryloylpiperidin-3-yl)-4-amino-3-(4-(2-fluorophenoxy)phenyl)-1H-pyrrolo[2,3-d]pyridazin-7(6H)-one]: the IC50 was not above 10 nM.
Under `N#CN1CCC[C@@H](n2cc(-c3ccc(Oc4ccccc4)cc3)c3c(N)n[nH]c(=O)c32)C1` [Example 20, (R)-3-(4-amino-7-oxo-3-(4-phenoxyphenyl)-6,7-dihydro-1H-pyrrolo[2,3-d]pyridazin-1-yl)piperidine-1-carbonitrile] stands 10 to 1000 nM; under `C=CC(=O)N1CCC[C@@H](n2cc(-c3ccc(Oc4ccccc4)cc3)c3c(N)n[nH]c(=O)c32)C1` [Example 1, (R)-1-(1-acryloylpiperidin-3-yl)-4-amino-3-(4-phenoxyphenyl)-1H-pyrrolo[2,3-d]pyridazin-7(6H)-one], not above 10 nM; under `C=CC(=O)N1CCC(Cn2cc(-c3ccc(Oc4ccccc4)cc3)c3c(N)n[nH]c(=O)c32)CC1` [Example 10, 4-amino-3-(4-phenoxyphenyl)-1-[(1-prop-2-enoyl-4-piperidyl)methyl]-6H-pyrrolo[2,3-d]pyridazin-7-one], 10 to 1000 nM.
Take `N#CN1CC[C@@H](n2cc(-c3ccc(Oc4ccccc4)cc3)c3c(N)n[nH]c(=O)c32)C1` [Example 107, (R)-3-(4-amino-7-oxo-3-(4-phenoxyphenyl)-6,7-dihydro-1H-pyrrolo[2,3-d]pyridazin-1-yl)pyrrolidine-1-carbonitrile]: the IC50 is not above 10 nM.
For the compound `COc1cc(-c2cn([C@@H]3CCCN(C(=O)/C=C/CN(C)C)C3)c3c(=O)[nH]nc(N)c23)ccc1Oc1ccc(Cl)c(Cl)c1` [Example 73, 4-amino-3-[4-(3,4-dichlorophenoxy)-3-methoxy-phenyl]-1-[(3R)-1-[(E)-4-(dimethylamino)but-2-enoyl]-3-piperidyl]-6H-pyrrolo[2,3-d]pyridazin-7-one], the concentration for half-maximal inhibition (IC50) was in the range of 10 to 1000 nM.
Next, `C=CC(=O)N[C@H]1CC[C@@H](n2cc(-c3ccc(Oc4ccccc4F)cc3)c3c(N)n[nH]c(=O)c32)CC1` [Example 104, N-((1s,4s)-4-(4-amino-3-(4-(2-fluorophenoxy)phenyl)-7-oxo-6,7-dihydro-1H-pyrrolo[2,3-d]pyridazin-1-yl)cyclohexyl)acrylamide]: 10 to 1000 nM; `CC#CC(=O)N1CC[C@H](n2cc(-c3ccc(Oc4ccccc4F)cc3)c3c(N)n[nH]c(=O)c32)C1` [Example 101, (S)-4-amino-1-(1-(but-2-ynoyl)pyrrolidin-3-yl)-3-(4-(2-fluorophenoxy)phenyl)-1H-pyrrolo[2,3-d]pyridazin-7(6H)-one]: 1000 to 100000 nM.
Under `N#CN1CCC[C@@H](n2c(Cl)c(-c3ccc(Oc4ccccc4F)cc3)c3c(N)n[nH]c(=O)c32)C1` [Example 86, (R)-3-(4-amino-2-chloro-3-(4-(2-fluorophenoxy)phenyl)-7-oxo-6,7-dihydro-1H-pyrrolo[2,3-d]pyridazin-1-yl)piperidine-1-carbonitrile] stands 1000 to 100000 nM; under `C=CC(=O)N1CCC[C@@H](n2cc(-c3ccc(Oc4ccccc4Cl)cc3)c3c(N)n[nH]c(=O)c32)C1` [Example 70, (R)-1-(1-acryloylpiperidin-3-yl)-4-amino-3-(4-(2-chlorophenoxy)phenyl)-1H-pyrrolo[2,3-d]pyridazin-7(6H)-one], 10 to 1000 nM.
For the compound `CN(C)C/C=C/C(=O)N1CCC(n2cc(-c3ccc(Oc4ccccc4)cc3)c3c(N)n[nH]c(=O)c32)CC1` [Example 44, 4-amino-1-[1-[(E)-4-(dimethylamino)but-2-enoyl]-4-piperidyl]-3-(4-phenoxyphenyl)-6H-pyrrolo[2,3-d]pyridazin-7-one], the IC50 was 10 to 1000 nM.
